Laboratory results reported in patent US6410740B1, “Heterocyclylmethyl-substituted pyrazol derivatives” (Bayer Aktiengesellschaft, priority 1996, dated 2002).
Read-outs that look alike come from different tables or passages of the source.

Key:
[1] = target: T1, soluble guanylate cyclase (Sus scrofa, UniProt A0A4X1U7N1+A0ACM8Q7I6); assay: Stimulation of soluble guanylate cyclase in primary endothelial cells (intracellular cGMP, radioimmunological); format: cell-based; conditions: test substance 1 μM, 10-minute incubation, primary pig aortic endothelial cells, with or without SNP 1 μM (not stated which); for activation at 1 µM: 10 min, read-out: % increase in cGMP
T1 construct: endogenous in cells; host or cells: primary endothelial cells from pig aorta
T1 sequence (A0A4X1U7N1 1-619): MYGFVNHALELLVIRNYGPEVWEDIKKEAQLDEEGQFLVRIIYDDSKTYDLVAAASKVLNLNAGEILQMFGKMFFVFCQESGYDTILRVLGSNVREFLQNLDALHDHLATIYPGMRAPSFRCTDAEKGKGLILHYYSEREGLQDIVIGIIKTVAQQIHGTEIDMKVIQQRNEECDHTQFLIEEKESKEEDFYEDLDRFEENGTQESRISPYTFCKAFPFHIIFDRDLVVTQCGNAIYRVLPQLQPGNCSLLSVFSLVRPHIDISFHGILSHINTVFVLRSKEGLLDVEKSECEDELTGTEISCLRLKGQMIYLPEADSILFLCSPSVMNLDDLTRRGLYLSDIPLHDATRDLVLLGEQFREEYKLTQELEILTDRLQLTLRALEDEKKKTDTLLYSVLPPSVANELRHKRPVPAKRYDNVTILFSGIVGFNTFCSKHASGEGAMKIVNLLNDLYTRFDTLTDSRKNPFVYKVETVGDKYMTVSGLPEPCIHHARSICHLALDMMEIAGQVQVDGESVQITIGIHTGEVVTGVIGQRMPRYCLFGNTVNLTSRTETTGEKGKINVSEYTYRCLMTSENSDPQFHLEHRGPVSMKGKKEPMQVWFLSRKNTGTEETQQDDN
T1 sequence (A0ACM8Q7I6 1-688): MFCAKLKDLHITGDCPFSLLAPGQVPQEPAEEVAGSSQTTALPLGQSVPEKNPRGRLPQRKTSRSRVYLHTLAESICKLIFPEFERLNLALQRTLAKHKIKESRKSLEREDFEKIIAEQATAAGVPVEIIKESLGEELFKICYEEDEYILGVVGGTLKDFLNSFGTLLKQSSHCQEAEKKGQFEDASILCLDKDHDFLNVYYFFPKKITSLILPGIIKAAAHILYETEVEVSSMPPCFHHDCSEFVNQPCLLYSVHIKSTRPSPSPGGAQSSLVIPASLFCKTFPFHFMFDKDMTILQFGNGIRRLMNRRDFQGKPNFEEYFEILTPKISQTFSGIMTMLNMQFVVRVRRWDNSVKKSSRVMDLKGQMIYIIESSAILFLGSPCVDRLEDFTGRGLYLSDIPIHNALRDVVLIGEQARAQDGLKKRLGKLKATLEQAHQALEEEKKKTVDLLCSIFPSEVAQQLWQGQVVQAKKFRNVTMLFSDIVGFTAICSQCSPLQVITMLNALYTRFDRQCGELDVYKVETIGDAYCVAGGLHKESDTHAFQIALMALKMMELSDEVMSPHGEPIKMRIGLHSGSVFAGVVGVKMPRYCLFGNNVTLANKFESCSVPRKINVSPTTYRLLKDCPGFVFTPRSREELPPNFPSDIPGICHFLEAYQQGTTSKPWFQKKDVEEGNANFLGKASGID
Description: Stimulation of Soluble Guanylate Cyclase in Primary Endothelial Cells
(§1) Primary endothelial cells were isolated from pig aortas by treatment with collagenase solution. The cells were then cultured in a culture medium until confluence was reached. For the investigations, the cells were subjected to passaging, sown in cell culture plates and subcultured until confluence was reached. To stimulate the endothelial guanylate cyclase, the culture medium was suctioned off and the cells were washed once with Ringer's solution and incubated in stimulation buffer with or without an NO donor (sodium nitroprusside, SNP, 1 μM). Thereafter, the test substances (final concentration 1 μM) were pipetted onto the cells. At the end of the 10-minute incubation period, the buffered solution was suctioned off and the cells were lysed at −20° C. for 16 hours. The intracellular cGMP was then determined radioimmunologically.
as §1, with “sucked” for “suctioned”
as §1, with “without” for “without an”, “buffer” for “buffered”

[2] = tested on: rabbit aortic rings precontracted with phenylephrine; assay: Vessel-relaxing action in vitro on isolated aortic rings precontracted with phenylephrine; conditions: rabbit aorta rings, phenylephrine contraction
Description: Vessel-relaxing Action in vitro
Rings 1.5 mm wide of an aorta isolated from a rabbit are introduced individually, under pretension, in 5 ml organ baths with Krebs-Henseleit solution warmed to 37° C. and gassed with carbogen. The contraction force is amplified and digitalized and recorded in parallel on a line recorder. To generate a contraction, phenylephrine is added cumulatively to the bath in an increasing concentration.
(§2) After several control cycles, the substance to be investigated is investigated in each further pass in each case in an increasing dosage, and a comparison is made with the level of the contraction achieved in the last preliminary pass. The concentration necessary to reduce the level of the control value by 50% (IC50) is calculated from this. The standard application volume is 5 μl.
as §2, with “this.” for “this. The standard application volume is 5 μl.”
The standard application volume is 5 μl.

[3] = Oryctolagus cuniculus, embodiment II
[4] = Oryctolagus cuniculus, embodiment III
[5] = Oryctolagus cuniculus, iv, embodiment IV

SMILES	activation at 1 µM ([1]; embodiment II)	IC50 [2, 3]	further results
OCc1cccc(-c2nn(Cc3ccccc3)c3ccccc23)n1 [II-36, 1-Benzyl-3-(6-hydroxymethyl-2-pyridyl)indazole]	225%	13 µM	
Cc1cnc(-c2nn(Cc3ccccc3)c3ccccc23)nc1C [II-38, 1-Benzyl-3-(4,5-dimethyl-2-pyrimidyl)indazole]	> 1000%	11 µM	
c1ccc(Cn2nc(-c3ncccn3)c3ccccc32)cc1 [II-39]	909%	11 µM	
Fc1ccccc1Cn1nc(-c2ncccn2)c2ccccc21 [II-40]	> 1000%	24 µM	
N#Cc1ccccc1Cn1nc(-c2ncccn2)c2ccccc21 [II-41]	557%	13 µM	
Cc1ccnc(-c2nn(Cc3ccccc3)c3ccccc23)n1 [II-42]	611%	10 µM	
Cc1cnc(-c2nn(Cc3ccccc3F)c3ccccc23)nc1C [II-43]	> 1000%		
Cc1cnc(-c2nn(Cc3ccccc3C#N)c3ccccc23)nc1C [II-44]	> 1000%		
CCOC(OCC)c1nc(-c2nn(Cc3ccccc3)c3ccccc23)ncc1C [II-45]	326%		
Cc1nc(-c2nn(Cc3ccccc3)c3ccccc23)nc(C)c1C [II-46]	390%		
Cc1nc(-c2nn(Cc3ccccc3)c3ccccc23)nc(C)c1Cl [II-47]	240%		
CNc1nc(-c2nn(Cc3ccccc3)c3ccccc23)ncc1Cl [II-48]	> 1000%	13 µM	
N#Cc1cnc(-c2nn(Cc3ccccc3)c3ccccc23)nc1N [II-49]	> 1000%	65 µM	
Clc1nccc(-c2nn(Cc3ccccc3)c3ccccc23)n1 [II-50]	116%	> 31 µM	
Cc1cc(-c2nn(Cc3ccccc3)c3ccccc23)nc(Cl)n1 [II-51]		> 30 µM	
OCCNc1nccc(-c2nn(Cc3ccccc3)c3ccccc23)n1 [II-52]	397%	14 µM	
Nc1nccc(-c2nn(Cc3ccccc3)c3ccccc23)n1 [II-53]	428%	18 µM	
c1ccc(Cn2nc(-c3cnccn3)c3ccccc32)cc1 [II-55]		> 35 µM	
Cc1cncc(-c2nn(Cc3ccccc3)c3ccccc23)n1 [II-56]	233%	> 33 µM	
c1ccc(Cn2nc(-c3ccccn3)c3ccccc32)cc1 [II-58]	271%		
Cc1cccc(-c2nn(Cc3ccccc3)c3ccccc23)n1 [II-59]	268%	> 33 µM	
Cc1cc(C)c(C#N)c(-c2nn(Cc3ccccc3)c3ccccc23)n1 [II-60]		> 30 µM	
Cc1cc(Cl)cc(-c2nn(Cc3ccccc3)c3ccccc23)n1 [II-61]		> 30 µM	

SMILES	activation at 1 µM ([1]; embodiment II)	IC50 [2, 3]	further results
Cc1nc(-c2nn(Cc3ccccc3)c3ccccc23)oc1CO [III-75]			activation at 1 µM ([1]; embodiment III): > 1000%; IC50 [2, 4]: 2.2 µM
OCc1nnc(-c2nn(Cc3ccccc3F)c3ccccc23)o1 [III-76]			% increase in cGMP ([1]; embodiment III): 397%; IC50 ([2]; embodiment III): 7.4 µM
CC(=O)OCc1oc(-c2nn(Cc3ccccc3)c3ccccc23)nc1C [III-77]			activation at 1 µM ([1]; embodiment III): > 1000%; IC50 [2, 4]: 8.3 µM
CC(=O)OCc1nnc(-c2nn(Cc3ccccc3F)c3ccccc23)o1 [III-78]			activation at 1 µM ([1]; embodiment III): 223%; IC50 [2, 4]: 10 µM
OCc1nnc(-c2nn(Cc3ccccc3F)c3ccccc23)o1 [III-79]			% increase in cGMP ([1]; embodiment III): 124%; IC50 [2, 4]: 13 µM
Cc1coc(-c2nn(Cc3ccccc3F)c3ccccc23)n1 [III-80]			activation at 1 µM ([1]; embodiment III): > 1000%; IC50 [2, 4]: 3.6 µM
OCc1nnc(-c2nn(Cc3ccccc3)c3ccccc23)o1 [III-81]			activation at 1 µM ([1]; embodiment III): 110%; IC50 [2, 4]: 12 µM
OCc1csc(-c2nn(Cc3ccccc3)c3ccccc23)n1 [III-82]			activation at 1 µM ([1]; embodiment III): 455%; IC50 [2, 4]: 15 µM
c1ccc(Cn2nc(-c3ncco3)c3ccccc32)cc1 [III-87]			activation at 1 µM ([1]; embodiment III): 268%; IC50 [2, 4]: 19 µM
CCc1coc(-c2nn(Cc3ccccc3)c3ccccc23)n1 [III-88]			IC50 [2, 4]: 7.1 µM
COCc1oc(-c2nn(Cc3ccccc3)c3ccccc23)nc1C [III-90]			IC50 [2, 4]: 4.1 µM
CCOCc1oc(-c2nn(Cc3ccccc3)c3ccccc23)nc1C [III-91]			activation at 1 µM ([1]; embodiment III): 479%
OCc1cnc(-c2nn(Cc3ccccc3)c3ccccc23)s1 [III-92]			activation at 1 µM ([1]; embodiment III): 319%
CCOC(=O)c1coc(-c2nn(Cc3ccccc3)c3ccccc23)n1 [III-93]			activation at 1 µM ([1]; embodiment III): 271%
OCc1cnc(-c2nn(Cc3ccccc3F)c3ccccc23)s1 [III-95]			IC50 [2, 4]: 2.4 µM
O=Cc1ccc(-c2nn(Cc3ccccc3)c3ccccc23)o1 [IV-138, 1-Benzyl-3-(5-formylfuran-2-yl)-indazole]			activation at 1 µM ([1]; embodiment IV): 324%
CC(O)c1ccc(-c2nn(Cc3ccccc3)c3ccccc23)o1 (centres unmarked) [IV-139, 1-[5-(1-Benzylindazol-3-yl)-furan-2-yl]-ethanol]			activation at 1 µM ([1]; embodiment IV): 723%; IC50 [2, 5]: 12 µM
CC(=O)c1ccc(-c2nn(Cc3ccccc3)c3ccccc23)o1 [IV-140, 3-(5-Acetylfuran-2-yl)-1-benzyl-indazole]			activation at 1 µM ([1]; embodiment IV): 619%; IC50 [2, 5]: 12 to 17 µM
O=[N+]([O-])c1ccc(-c2nn(Cc3ccccc3)c3ccccc23)o1 [IV-143, 1-Benzyl-3-(5-nitrofuran-2-yl)-indazole]			activation at 1 µM ([1]; embodiment IV): > 1000%
O=Cc1ccc(-c2nn(Cc3ccc(F)cc3)c3ccccc23)o1 [IV-148]			activation at 1 µM ([1]; embodiment IV): 978%; IC50 [2, 5]: 6.7 µM
O/N=C/c1ccc(-c2nn(Cc3ccccc3)c3ccccc23)o1 [IV-153]			activation at 1 µM ([1]; embodiment IV): 341%; IC50 [2, 5]: 9.1 µM
N#Cc1cccc(Cn2nc(-c3ccc(CO)o3)c3ccccc32)c1 [IV-166]			IC50 [2, 5]: 18 µM
